Test results from ChEMBL document CHEMBL4000218, “Explicit treatment of active-site waters enhances quantum mechanical/implicit solvent scoring: Inhibition of CDK2 by new pyrazolo[1,5-a]pyrimidines” (Eur J Med Chem, 2017).

Target: Cyclin-dependent kinase 2/cyclin E1 (Homo sapiens, UniProt P24941)
Assay: Inhibition of CDK2/cyclin E (unknown origin) expressed in baculovirus infected insect Sf9 cells using histone H1 as substrate in presence of [gamma-33P]ATP

SMILES	IC50 [µM]
NC(=O)c1ccc(-c2ccc(-c3cc(NCc4cccnc4)n4ncc(Br)c4n3)cc2)c(O)c1	0.015
CN(C)C(=O)c1ccc(-c2ccc(-c3cc(NCc4cccnc4)n4ncc(Br)c4n3)cc2)cc1	0.064
OCc1ccc(-c2ccc(-c3cc(NCc4cccnc4)n4nccc4n3)cc2)cc1	6.11
NC(=O)c1ccc(-c2ccc(-c3cc(NCc4cccnc4)n4nccc4n3)cc2)cc1O	2.67
Nc1ccc(-c2ccc(-c3cc(NCc4cccnc4)n4nccc4n3)cc2)cc1	4.91
CCc1cnn2c(NCc3cccnc3)cc(-c3ccc(-c4ccc(C(N)=O)cc4)cc3)nc12	0.018
c1ccc(-c2ccc(-c3cc(NCc4cccnc4)n4nccc4n3)cc2)cc1	12.6
NC(=O)c1ccc(-c2ccc(-c3cc(NCc4cccnc4)n4nccc4n3)cc2)cc1	3.94
NC(=O)c1ccc(-c2ccc(-c3cc(NCc4cccnc4)n4ncc(Br)c4n3)cc2)cc1O	0.052
CN(C)C(=O)c1ccc(-c2ccc(-c3cc(NCc4cccnc4)n4nccc4n3)cc2)cc1	1.97
CCc1cnn2c(NCc3cccnc3)cc(-c3ccc(-c4ccc(CO)cc4)cc3)nc12	0.13
N#CCCc1cc(-c2ccc(-c3cc(NCc4cccnc4)n4nccc4n3)cc2)ccc1C(N)=O	5.45
COc1cc(-c2ccc(-c3cc(NCc4cccnc4)n4nccc4n3)cc2)ccc1C(N)=O	5.53
N#CCCc1cc(-c2ccc(-c3cc(NCc4cccnc4)n4ncc(Br)c4n3)cc2)ccc1C(N)=O	0.053
Nc1ccc(-c2ccc(-c3cc(NCc4cccnc4)n4ncc(Br)c4n3)cc2)cc1	0.14
Brc1cnn2c(NCc3cccnc3)cc(-c3ccc(-c4ccccc4)cc3)nc12	0.49
CCc1cnn2c(NCc3cccnc3)cc(-c3ccc(-c4ccc(C(N)=O)c(O)c4)cc3)nc12	0.031
Oc1ccc(-c2ccc(-c3cc(NCc4cccnc4)n4ncc(Br)c4n3)cc2)cc1	0.14
OCc1ccc(-c2ccc(-c3cc(NCc4cccnc4)n4ncc(Br)c4n3)cc2)cc1	0.045
NC(=O)c1ccc(-c2ccc(-c3cc(NCc4cccnc4)n4ncc(Br)c4n3)cc2)cc1	0.037
Oc1ccc(-c2ccc(-c3cc(NCc4cccnc4)n4nccc4n3)cc2)cc1	3.86
